Experimental data from publication PMC12073449, “Development of a Mechanism of Action-Reflective Cell-Based Reporter Gene Assay for Measuring Bioactivities of Therapeutic Glucagon-like Peptide-2 Analogues” (Molecules, 2025).
Ends that are not written are not given here.

System: HEK293-GLP-2R-Luc cells

HGEGTFSSELATILDALAARDFINWLIATKITDKKKKKK-NH2 [glepaglutide]
log2 (TD/Ctrl) TMEM54 (Qvalue 0.021231): 1.072
log2 (TD/Ctrl) RYR1 (Qvalue 0.021465): 1.055
log2 (TD/Ctrl) PHKG1 (Qvalue 0.021994): 1.955
log2 (TD/Ctrl) KLF6 (Qvalue 0.022289): 1.402
log2 (TD/Ctrl) LRRTM4 (Qvalue 0.022315): −1.285
log2 (TD/Ctrl) PHOSPHO2 (Qvalue 0.023229): −1.059
log2 (TD/Ctrl) MICOS10-NBL1 (Qvalue 0.023249): 1.952
log2 (TD/Ctrl) PDE3A (Qvalue 0.023634): 1.882
log2 (TD/Ctrl) LARGE2 (Qvalue 0.023651): 1.17
log2 (TD/Ctrl) HES7 (Qvalue 0.024442): 1.525
log2 (TD/Ctrl) VSTM2B (Qvalue 0.024619): 1.668
log2 (TD/Ctrl) INSM1 (Qvalue 0.02493): 1.259
log2 (TD/Ctrl) SIK1 (Qvalue 0.025061): 1.255
log2 (TD/Ctrl) IQANK1 (Qvalue 0.02555): −1.07
log2 (TD/Ctrl) TRABD2A (Qvalue 0.026368): 1.121
log2 (TD/Ctrl) RAB20 (Qvalue 0.026593): 1.265
log2 (TD/Ctrl) ADAM8 (Qvalue 0.026923): −1.632
log2 (TD/Ctrl) EGR2 (Qvalue 0.027245): 1.924
log2 (TD/Ctrl) ACTRT3 (Qvalue 0.027976): −1.89
log2 (TD/Ctrl) CILP2 (Qvalue 0.028089): 1.014
log2 (TD/Ctrl) KCNJ4 (Qvalue 0.028153): 1.521
log2 (TD/Ctrl) NGFR (Qvalue 0.0305): 1.083
log2 (TD/Ctrl) GPR146 (Qvalue 0.031918): −1.284
log2 (TD/Ctrl) SLC2A9 (Qvalue 0.032594): −1.825
log2 (TD/Ctrl) FIBIN (Qvalue 0.032833): −1.931
log2 (TD/Ctrl) INSC (Qvalue 0.033388): 1.775
log2 (TD/Ctrl) TRPM4 (Qvalue 0.034028): 1.164
log2 (TD/Ctrl) TOR4A (Qvalue 0.034573): −1.123
log2 (TD/Ctrl) ANXA3 (Qvalue 0.034821): 1.046
log2 (TD/Ctrl) F2RL2 (Qvalue 0.035979): 2.195
log2 (TD/Ctrl) GFRA2 (Qvalue 0.036382): 1.989
log2 (TD/Ctrl) CHD5 (Qvalue 0.036855): 1.476
log2 (TD/Ctrl) IER5L (Qvalue 0.037055): 1.227
log2 (TD/Ctrl) CORO1A (Qvalue 0.03809): 1.157
log2 (TD/Ctrl) DMRT1 (Qvalue 0.038243): 2.578
log2 (TD/Ctrl) TMEM200A (Qvalue 0.038553): 2.008
log2 (TD/Ctrl) BIRC3 (Qvalue 0.038759): 1.213
log2 (TD/Ctrl) GJB7 (Qvalue 0.040011): −1.706
log2 (TD/Ctrl) PABIR3 (Qvalue 0.044085): 1.001
log2 (TD/Ctrl) DAB1 (Qvalue 0.044461): 1.527
log2 (TD/Ctrl) CLIC5 (Qvalue 0.046355): 1.134
log2 (TD/Ctrl) LOC124904248 (Qvalue 0.046402): −1.239
log2 (TD/Ctrl) FOXD4 (Qvalue 0.046871): −1.765
log2 (TD/Ctrl) SNAI2 (Qvalue 0.046941): 1.1
log2 (TD/Ctrl) ANKRD20A1 (Qvalue 0.047154): 1.015
log2 (TD/Ctrl) MVP (Qvalue 0.048413): 1.066
log2 (TD/Ctrl) SHISA8 (Qvalue 0.048554): 1.031
log2 (TD/Ctrl) TBC1D3C (Qvalue 0.04891): −2.321
log2 (TD/Ctrl) CDH1 (Qvalue 0.049404): 1.135
log2 (TD/Ctrl) ZNF296 (Qvalue 0.049596): 1.005
log2 (TD/Ctrl) IRX4 (Qvalue 1.00 × 10^−4): 3.763
log2 (TD/Ctrl) LYPD6 (Qvalue 1.04 × 10^−4): −1.124
log2 (TD/Ctrl) TGFB1 (Qvalue 1.04 × 10^−9): 1.683
log2 (TD/Ctrl) SMOX (Qvalue 1.04 × 10^−10): 1.479
log2 (TD/Ctrl) GPR3 (Qvalue 1.05 × 10^−12): 3.013
log2 (TD/Ctrl) PMAIP1 (Qvalue 1.07 × 10^−13): 1.02
log2 (TD/Ctrl) CCN1 (Qvalue 1.09 × 10^−13): 1.83
log2 (TD/Ctrl) BAX (Qvalue 1.10 × 10^−10): −1.136
log2 (TD/Ctrl) ACTBL2 (Qvalue 1.10 × 10^−21): 2.68
log2 (TD/Ctrl) CREM (Qvalue 1.18 × 10^−18): 1.319
log2 (TD/Ctrl) TFPI (Qvalue 1.19 × 10^−6): 1.103
log2 (TD/Ctrl) CFAP44 (Qvalue 1.21 × 10^−4): −1.2179
log2 (TD/Ctrl) SPRY4 (Qvalue 1.22 × 10^−4): 1.583
log2 (TD/Ctrl) GCNT1 (Qvalue 1.22 × 10^−6): −1.113
log2 (TD/Ctrl) DUSP1 (Qvalue 1.23 × 10^−13): 2.837
log2 (TD/Ctrl) MAFK (Qvalue 1.26 × 10^−13): 1.561
log2 (TD/Ctrl) GEM (Qvalue 1.30 × 10^−33): 2.896
log2 (TD/Ctrl) EML2 (Qvalue 1.31 × 10^−5): 1.098
log2 (TD/Ctrl) ECEL1 (Qvalue 1.32 × 10^−6): 2.018
log2 (TD/Ctrl) NFATC1 (Qvalue 1.32 × 10^−9): 1.146
log2 (TD/Ctrl) LBHD1 (Qvalue 1.34 × 10^−6): −1.453
log2 (TD/Ctrl) GNG4 (Qvalue 1.34 × 10^−10): 1.107
log2 (TD/Ctrl) GFPT2 (Qvalue 1.35 × 10^−4): 1.08
log2 (TD/Ctrl) HOXB6 (Qvalue 1.35 × 10^−4): −1.274
log2 (TD/Ctrl) VGF (Qvalue 1.36 × 10^−15): 2.99
log2 (TD/Ctrl) USP4 (Qvalue 1.38 × 10^−4): 1.002
log2 (TD/Ctrl) CASD1 (Qvalue 1.39 × 10^−4): −1.007
log2 (TD/Ctrl) SGK1 (Qvalue 1.39 × 10^−7): 1.322
log2 (TD/Ctrl) PHLDA1 (Qvalue 1.40 × 10^−4): 1.224
log2 (TD/Ctrl) NDRG1 (Qvalue 1.40 × 10^−27): 1.674
log2 (TD/Ctrl) EMILIN2 (Qvalue 1.41 × 10^−13): 1.304
log2 (TD/Ctrl) TPM4 (Qvalue 1.41 × 10^−16): 1.086
log2 (TD/Ctrl) FOSB (Qvalue 1.44 × 10^−4): 2.796
log2 (TD/Ctrl) IER3 (Qvalue 1.44 × 10^−12): 1.677
log2 (TD/Ctrl) AHR (Qvalue 1.47 × 10^−8): 1.016
log2 (TD/Ctrl) SPINT1 (Qvalue 1.47 × 10^−8): 1.307
log2 (TD/Ctrl) PTP4A1 (Qvalue 1.47 × 10^−41): 1.5
log2 (TD/Ctrl) FOSL2 (Qvalue 1.49 × 10^−13): 1.385
log2 (TD/Ctrl) GADD45A (Qvalue 1.52 × 10^−19): 1.573
log2 (TD/Ctrl) FOS (Qvalue 1.54 × 10^−5): 3.22
log2 (TD/Ctrl) SMAD6 (Qvalue 1.54 × 10^−5): −1.023
log2 (TD/Ctrl) FADS2 (Qvalue 1.54 × 10^−10): −1.136
log2 (TD/Ctrl) DNAJB5 (Qvalue 1.56 × 10^−4): 1.316
